Calls of active or inactive are those of the source.
How the values were obtained:
[1] = target: Nuclear receptor subfamily 5 group A member 2 (Homo sapiens, UniProt O00482); format: functional, cell-based;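 further: HEK293T cells transfected with LRH-1 and a StAR promoter luciferase reporter; potency for inhibitors that lower LRH-1 driven reporter light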
[2] = nonselective StAR promoter luciferase inhibitors – cell-based, luminescence, luciferase reporter, counter-screen for LRH-1 inverse agonist project, dose response (AID 651969); format: functional
Steroidogenic factor 1 = Steroidogenic factor 1 (Homo sapiens, UniProt Q13285); experiment: Counterscreen for inverse agonists of the liver receptor homolog-1 (LRH-1; NR5A2): Luminescence-based cell-based high throughput dose response assay to identify inverse agonists of the Steroidogenic Factor 1 Nuclear Receptor (SF1; NR5A1).; format: functional
[3] = Luminescence Cell-Based Dose Confirmation HTS to Identify Activators of 5'UTR Stem-Loop Driven Alpha-Synuclein mRNA Translation in H4 Neuroglioblastoma Cells. [Related pubchem assays: 1829 (Project Summary), 1814 (Primary HTS)]; format: functional
[4] = fluconazole-exposed Candida albicans growth modulators – fluorescence, retest, confirmation (AID 2467); format: functional, cell-based
[5] = target: ATP-dependent molecular chaperone HSP82 (Candida albicans (strain WO-1) (Yeast), UniProt C4YTQ8); experiment: steroid-induced GRE reporter decrease in yeast – S. cerevisiae, luminescence, Hsp90 inhibitor project, dose response (AID 2400); format: functional, cell-based;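 further: beta-galactosidase luminescence from glucocorticoid response element reporter as proxy for Hsp90 function; inhibitor potency where signal loss means Hsp90 inhibition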
[6] = Luminescence Cell-Based Dose Confirmation to Identify Activators of 5'UTR Stem-Loop Driven Alpha-Synuclein mRNA Translation in H4 Neuroglioblastoma Cells. [Related pubchem assays: 1829 (Project Summary), 1814 (Primary HTS)]; format: functional
[7] = Luminescence Cell-Based Dose Response to Identify Activators of 5'UTR Stem-Loop Driven Prion Protein mRNA Translation in H4-C Neuroglioblastoma Cells. [Related pubchem assays: 1829 (Project Summary), 1814 (Primary HTS)]; format: functional
[8] = NIH-3T3 fibroblast cytotoxicity, dose response, cytotoxicity control, cell-based, fluorescence, Alamar Blue, secondary assay (AID 2327); format: functional;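 further: NIH-3T3 mouse fibroblasts cultured with fluconazole at 8 µg/mL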
[9] = Luminescence Cell-Based Dose Response HTS to Identify Activators of Luciferase Translation or Activity in H4 […] Cells. [Related pubchem assays: 1829 (Project Summary), 1814 (Primary HTS)]; format: functional
[10] = target: Serine/threonine-protein phosphatase (Candida dubliniensis (strain CD36 / CBS 7987 / NCPF 3949 / NRRLY-17841) (Yeast), UniProt B9W6M3); experiment: blockers of CaCl2-induced CDRE-lacZ signaling – S. cerevisiae, luminescence, secondary, dose response (AID 2388); format: functional, cell-based;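 further: yeast reporter cells carrying a calcineurin-responsive lacZ construct stimulated with calcium chloride; luminescent beta-galactosidase reporter signal in whole cells rather than isolated phosphatase activity; potency for inhibition where a drop in reporter signal means calcineurin blockade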
[11] = Luminescence Cell-Based Dose Response to Identify Activators of Luciferase Translation or Activity in H4-C Neuroglioblastoma Cells. [Related pubchem assays: 1829 (Project Summary), 1814 (Primary HTS)]; format: functional
H4 = experiment: Luminescence Cell-Based Dose Response HTS to Identify Activators of 5'UTR Stem-Loop Driven Prion Protein mRNA Translation in H4 Neuroglioblastoma Cells. [Related pubchem assays: 1829 (Project Summary), 1814 (Primary HTS)]; format: functional; conditions: Homo sapiens
[12] = target: Mitogen-activated protein kinase 13 (Homo sapiens, UniProt O15264); format: functional
[13] = target: T1, ATP-dependent translocase ABCB1 (Homo sapiens, UniProt P08183); experiment: inhibition of BCRP-mediated JC-1 efflux – Ig-MXP3 cells, flow cytometry, set 2, dose response (AID 504566); format: functional; conditions: read-out: EC50_MICROM_;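 further: flow cytometry median green fluorescence of retained JC-1 dye; potency of efflux pump inhibition measured as rising substrate retention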
[14] = target: T1, ATP-dependent translocase ABCB1; experiment: P-gp JC-1 efflux blockade concentration-response – Jurkat-DNR cells, flow cytometry, set 2, dose response (AID 504569); format: functional; conditions: read-out: EC50_MICROM_;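 further: potency of pump inhibitors that raise cellular JC-1 green fluorescence up to the nicardipine level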
H9c2 = experiment: cells; format: functional, cell-based; conditions: Rattus norvegicus, H9c2, Myocardium;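 further: confirmatory concentration-response retest of ultra-high-throughput screening hits for modulation of myocardial damage; cell death induced by hydrogen peroxide oxidative stress; compound pretreatment for 60 min then peroxide exposure for 2 h; potency is for protecting the cells against peroxide damage rather than for killing them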
[15] = bead-based luminescence quenchers, dual-tagged ARNT – biochemical, AlphaScreen, cherry-pick, artefact control for ARNT-TACC3 interaction inhibitor project, dose response (AID 651705); format: functional;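 further: AlphaScreen bead proximity signal that flags compounds interfering with the detection technology; potency reflects signal decrease which marks the compound as an assay artifact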
[16] = target: ADP-ribosylation factor GTPase-activating protein 1 (Rattus norvegicus, UniProt Q62848); experiment: Fluorescence polarization-based biochemical high throughput dose response screening assay to identify inhibitors of ADP-ribosylation factor GTPase activating protein 1 (ARFGAP1).; format: functional
[17] = target: Dual specificity protein kinase CLK1 (Homo sapiens, UniProt P49759); experiment: inhibition of human CLK1 activity – biochemical, cherry-picked samples, selectivity assay for Dyrk1A inhibitor project, dose response (AID 588811)
[18] = target: Cyclin-dependent kinase 9 (Homo sapiens, UniProt P50750); format: functional;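 further: value from the CDK9 entry of a kinome-spanning kinase panel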
[19] = target: Cyclin-dependent kinase 8 (Homo sapiens, UniProt P49336); experiment: Navigating the Kinome. Panel member name: CDK8; format: functional
[20] = target: Cyclin-dependent kinase 7 (Homo sapiens, UniProt P50613); format: functional;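 further: value comes from a kinome-wide kinase profiling panel in which CDK7 is one member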
Cyclin-dependent kinase 7, sequence (P50613 whole entry): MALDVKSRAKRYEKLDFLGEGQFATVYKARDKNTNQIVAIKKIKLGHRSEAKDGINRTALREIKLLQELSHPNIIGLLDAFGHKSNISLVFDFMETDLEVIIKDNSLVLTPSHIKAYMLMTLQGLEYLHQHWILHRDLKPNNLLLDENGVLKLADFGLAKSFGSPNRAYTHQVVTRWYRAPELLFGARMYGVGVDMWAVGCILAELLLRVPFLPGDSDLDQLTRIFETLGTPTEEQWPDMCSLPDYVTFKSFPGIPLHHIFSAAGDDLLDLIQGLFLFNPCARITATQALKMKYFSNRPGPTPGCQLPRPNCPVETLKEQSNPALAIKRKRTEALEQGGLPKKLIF

T1 sequence (P08183 whole entry): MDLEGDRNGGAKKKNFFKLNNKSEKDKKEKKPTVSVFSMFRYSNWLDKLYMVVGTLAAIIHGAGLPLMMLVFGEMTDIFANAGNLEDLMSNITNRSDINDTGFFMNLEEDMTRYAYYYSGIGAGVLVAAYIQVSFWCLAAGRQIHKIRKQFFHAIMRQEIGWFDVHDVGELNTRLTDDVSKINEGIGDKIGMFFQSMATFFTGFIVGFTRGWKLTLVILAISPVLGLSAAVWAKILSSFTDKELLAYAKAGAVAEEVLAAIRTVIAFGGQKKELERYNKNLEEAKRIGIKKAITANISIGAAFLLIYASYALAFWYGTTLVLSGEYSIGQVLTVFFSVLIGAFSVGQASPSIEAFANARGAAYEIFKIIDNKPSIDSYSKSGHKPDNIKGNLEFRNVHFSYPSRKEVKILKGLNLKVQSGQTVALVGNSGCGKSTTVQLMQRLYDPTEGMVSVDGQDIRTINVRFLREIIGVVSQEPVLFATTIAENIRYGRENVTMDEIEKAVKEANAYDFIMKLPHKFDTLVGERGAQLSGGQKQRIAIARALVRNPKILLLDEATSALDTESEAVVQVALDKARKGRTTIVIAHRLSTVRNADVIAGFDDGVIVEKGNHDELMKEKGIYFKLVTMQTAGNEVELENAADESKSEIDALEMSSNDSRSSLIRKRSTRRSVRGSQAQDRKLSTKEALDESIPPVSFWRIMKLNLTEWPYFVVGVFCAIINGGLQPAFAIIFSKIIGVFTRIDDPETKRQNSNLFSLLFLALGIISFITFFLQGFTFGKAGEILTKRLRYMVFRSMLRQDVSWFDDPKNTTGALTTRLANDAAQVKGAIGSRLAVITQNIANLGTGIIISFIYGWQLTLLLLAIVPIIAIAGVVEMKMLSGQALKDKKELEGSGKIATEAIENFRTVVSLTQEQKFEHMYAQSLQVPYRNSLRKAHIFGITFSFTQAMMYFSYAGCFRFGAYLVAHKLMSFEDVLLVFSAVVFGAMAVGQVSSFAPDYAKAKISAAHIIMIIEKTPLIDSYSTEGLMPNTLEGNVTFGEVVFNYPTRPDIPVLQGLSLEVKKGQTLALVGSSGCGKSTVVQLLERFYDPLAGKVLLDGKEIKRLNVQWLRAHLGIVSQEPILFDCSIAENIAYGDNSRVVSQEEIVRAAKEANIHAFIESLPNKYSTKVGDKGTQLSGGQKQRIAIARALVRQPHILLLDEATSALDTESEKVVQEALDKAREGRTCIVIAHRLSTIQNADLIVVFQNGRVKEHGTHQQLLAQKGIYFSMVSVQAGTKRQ
ADP-ribosylation factor GTPase-activating protein 1, sequence (Q62848 whole entry): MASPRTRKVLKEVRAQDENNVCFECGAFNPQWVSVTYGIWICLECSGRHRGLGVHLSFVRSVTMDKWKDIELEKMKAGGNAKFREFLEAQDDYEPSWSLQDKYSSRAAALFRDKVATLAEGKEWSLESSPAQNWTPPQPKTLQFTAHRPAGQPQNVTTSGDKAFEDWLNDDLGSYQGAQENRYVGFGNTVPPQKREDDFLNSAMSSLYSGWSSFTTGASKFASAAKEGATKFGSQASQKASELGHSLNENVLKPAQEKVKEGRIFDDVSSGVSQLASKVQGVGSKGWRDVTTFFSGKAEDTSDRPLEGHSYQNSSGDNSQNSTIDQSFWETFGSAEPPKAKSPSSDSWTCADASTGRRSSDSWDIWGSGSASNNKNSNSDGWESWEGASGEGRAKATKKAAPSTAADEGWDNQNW
Mitogen-activated protein kinase 13, sequence (O15264 whole entry): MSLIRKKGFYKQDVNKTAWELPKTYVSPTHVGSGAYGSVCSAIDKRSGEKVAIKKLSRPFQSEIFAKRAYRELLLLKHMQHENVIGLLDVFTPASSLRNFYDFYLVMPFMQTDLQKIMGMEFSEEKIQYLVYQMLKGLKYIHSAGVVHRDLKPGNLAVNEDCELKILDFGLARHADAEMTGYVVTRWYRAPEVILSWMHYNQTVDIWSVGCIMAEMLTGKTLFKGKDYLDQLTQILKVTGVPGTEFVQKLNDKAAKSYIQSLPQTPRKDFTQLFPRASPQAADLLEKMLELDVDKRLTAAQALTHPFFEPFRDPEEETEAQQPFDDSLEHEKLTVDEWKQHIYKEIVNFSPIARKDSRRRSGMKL
ATP-dependent molecular chaperone HSP82, sequence (C4YTQ8 whole entry): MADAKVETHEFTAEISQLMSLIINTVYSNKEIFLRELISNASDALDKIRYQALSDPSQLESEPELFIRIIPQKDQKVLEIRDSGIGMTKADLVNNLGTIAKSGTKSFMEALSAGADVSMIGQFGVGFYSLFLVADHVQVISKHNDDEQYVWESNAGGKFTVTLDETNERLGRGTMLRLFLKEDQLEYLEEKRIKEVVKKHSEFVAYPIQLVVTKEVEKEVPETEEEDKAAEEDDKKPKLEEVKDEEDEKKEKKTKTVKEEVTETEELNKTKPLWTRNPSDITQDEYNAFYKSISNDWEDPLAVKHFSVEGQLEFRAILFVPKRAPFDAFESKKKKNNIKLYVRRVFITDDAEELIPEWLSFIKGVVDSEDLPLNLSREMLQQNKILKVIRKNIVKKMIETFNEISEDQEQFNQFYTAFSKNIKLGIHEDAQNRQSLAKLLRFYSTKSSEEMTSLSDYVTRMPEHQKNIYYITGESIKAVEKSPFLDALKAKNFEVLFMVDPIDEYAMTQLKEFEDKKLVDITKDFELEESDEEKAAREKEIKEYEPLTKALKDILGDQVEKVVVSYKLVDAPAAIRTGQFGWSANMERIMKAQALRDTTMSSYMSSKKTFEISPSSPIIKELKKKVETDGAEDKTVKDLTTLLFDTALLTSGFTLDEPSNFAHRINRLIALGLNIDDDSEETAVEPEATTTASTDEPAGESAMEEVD
Dual specificity protein kinase CLK1, sequence (P49759 whole entry): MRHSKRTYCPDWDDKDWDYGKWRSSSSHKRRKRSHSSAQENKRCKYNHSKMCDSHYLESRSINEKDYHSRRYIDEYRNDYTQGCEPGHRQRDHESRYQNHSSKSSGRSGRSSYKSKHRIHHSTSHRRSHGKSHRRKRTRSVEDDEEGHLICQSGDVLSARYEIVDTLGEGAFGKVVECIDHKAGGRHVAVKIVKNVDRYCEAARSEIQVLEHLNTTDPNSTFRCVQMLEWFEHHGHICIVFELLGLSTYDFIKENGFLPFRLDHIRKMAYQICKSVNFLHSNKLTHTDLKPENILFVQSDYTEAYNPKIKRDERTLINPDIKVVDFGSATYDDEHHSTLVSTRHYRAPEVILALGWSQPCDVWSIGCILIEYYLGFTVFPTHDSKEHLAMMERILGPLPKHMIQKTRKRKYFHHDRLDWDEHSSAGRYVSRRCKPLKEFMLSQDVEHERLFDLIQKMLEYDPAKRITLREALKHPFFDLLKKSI
Cyclin-dependent kinase 8, sequence (P49336 whole entry): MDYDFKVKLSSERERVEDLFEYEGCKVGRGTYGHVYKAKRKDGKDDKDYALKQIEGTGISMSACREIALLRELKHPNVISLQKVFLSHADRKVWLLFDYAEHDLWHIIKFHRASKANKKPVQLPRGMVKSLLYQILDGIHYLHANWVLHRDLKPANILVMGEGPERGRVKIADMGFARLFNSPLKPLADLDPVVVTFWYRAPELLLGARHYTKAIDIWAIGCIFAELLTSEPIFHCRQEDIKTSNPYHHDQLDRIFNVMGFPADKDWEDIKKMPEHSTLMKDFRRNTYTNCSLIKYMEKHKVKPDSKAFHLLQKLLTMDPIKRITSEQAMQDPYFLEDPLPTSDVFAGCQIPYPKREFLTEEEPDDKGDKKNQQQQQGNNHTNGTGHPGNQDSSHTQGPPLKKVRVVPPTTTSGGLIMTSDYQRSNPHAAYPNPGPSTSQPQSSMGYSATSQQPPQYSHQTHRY
Serine/threonine-protein phosphatase, sequence (B9W6M3 whole entry): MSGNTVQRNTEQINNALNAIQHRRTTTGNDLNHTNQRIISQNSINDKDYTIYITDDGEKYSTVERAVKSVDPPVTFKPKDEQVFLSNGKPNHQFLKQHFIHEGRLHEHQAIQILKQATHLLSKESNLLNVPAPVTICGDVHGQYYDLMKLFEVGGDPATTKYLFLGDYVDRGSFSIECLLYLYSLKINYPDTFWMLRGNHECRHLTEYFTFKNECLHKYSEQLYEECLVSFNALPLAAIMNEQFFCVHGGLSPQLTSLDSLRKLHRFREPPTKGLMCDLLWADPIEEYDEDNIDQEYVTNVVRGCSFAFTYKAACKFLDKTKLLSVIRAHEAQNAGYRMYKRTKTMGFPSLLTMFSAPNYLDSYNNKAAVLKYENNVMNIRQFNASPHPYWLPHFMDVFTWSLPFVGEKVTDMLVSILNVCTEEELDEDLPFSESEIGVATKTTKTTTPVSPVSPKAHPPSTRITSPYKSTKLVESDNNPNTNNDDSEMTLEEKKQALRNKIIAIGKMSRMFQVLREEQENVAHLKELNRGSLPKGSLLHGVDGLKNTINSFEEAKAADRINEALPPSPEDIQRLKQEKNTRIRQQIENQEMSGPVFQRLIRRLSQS

With `Cc1no[n+]([O-])c1COc1ccc(/C=C2\NC(=S)NC2=O)cc1` the IC50 [1] was 0.578 µM (active), the IC50 [2] was 35.9 µM (inactive) and the IC50 (Steroidogenic factor 1) was 1.34 µM (active).

In the case of `Clc1ccc(CONc2ncnc3nonc23)c(Cl)c1`, the EC50 [3] is reported as 22.4 µM (active), the EC50 [4] is reported as 1.26 µM (active) and the EC50 [5] is reported as 19.4 µM (active). The EC50 [6] was > 12 µM (not active), the EC50 [7] was 1.14 µM (active) and the EC50 [8] was > 160 µM (inactive). For the same molecule, the EC50 [9] was < 0.1 µM (inconclusive), the EC50 [10] was > 180 µM (inactive) and the EC50 [11] was 0.516 µM (active). For the same molecule, the EC50 (H4) was 52.6 µM (active).

For `CNCc1ccc(-c2[nH]c3cc(F)cc4c3c2CCNC4=O)cc1` [RUCAPARIB], the Ki [12] was > 7.94 µM (inactive).

With `O=C(c1ccco1)N1CCN(c2c3c(nc4cc(-c5cccc(F)c5)nn24)CCCC3)CC1` the EC50 [13] was 1.79 µM (active) and the EC50 [14] was 4.41 µM (active).

For `CCCn1nc(C(=O)Nc2nc(-c3ccccn3)cs2)c2ccccc2c1=O`, the IC50 (H9c2) was > 79 µM (inactive) and the AC50 [15] was 81.7 µM (active).

For `O=C(Nc1nnc(-c2ccc3c(c2)OCCO3)o1)c1ccc(Cc2ccccc2)cc1`, the IC50 [16] was 7.92 µM (active).

With `Clc1ccc(Nc2nccc(-c3ccc4c(c3)OCO4)n2)cc1` the AC50 [17] was 15.8 µM (active).

For `OCC1OC(n2cnc3cc(Cl)c(Cl)cc32)C(O)C1O` (stereo not drawn), the Ki [18] was 0.126 µM (active), the Ki [19] was 2 µM (active) and the Ki [20] was 2.51 µM (active).

Reference: ChEMBL document CHEMBL1201862, “PubChem BioAssay data set” (2004)
